Data from patent US9108944B2, “Androgen receptor modulators and uses thereof” (ARAGON PHARMACEUTICALS, INC., priority 2010, dated 2015).

Key:
AR-VP16 [1] = molecular target: T1, AR-VP16 (Homo sapiens, UniProt P10275); experiment: AR-VP16 DNA Binding Assay, antagonist mode (HepG2 cells, 0.1 nM R1881); type: cell-based
T1 sequence (P10275 560-920 limits assumed): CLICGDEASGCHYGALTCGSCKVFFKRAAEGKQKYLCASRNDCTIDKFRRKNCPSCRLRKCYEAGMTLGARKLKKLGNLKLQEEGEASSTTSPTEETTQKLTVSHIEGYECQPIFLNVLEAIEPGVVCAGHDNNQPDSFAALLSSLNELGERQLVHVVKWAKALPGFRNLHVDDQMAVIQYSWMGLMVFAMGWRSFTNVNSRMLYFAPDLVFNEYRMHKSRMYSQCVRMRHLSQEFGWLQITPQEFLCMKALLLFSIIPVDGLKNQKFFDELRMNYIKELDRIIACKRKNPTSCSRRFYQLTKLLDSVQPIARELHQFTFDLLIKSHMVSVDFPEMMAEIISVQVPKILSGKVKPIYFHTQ
Summary of the method: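 Transfected HepG2 cells expressing AR-VP16 received serially diluted compound in charcoal-stripped-serum RPMI the day after transfection, with 0.1 nM R1881 (final) added only for antagonist testing. After 48 h, cells were lysed for measurement.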

AR-VP16 [2] = molecular target: T1, AR-VP16; experiment: AR-VP16 DNA Binding Assay, agonist mode (HepG2 cells); type: cell-based; details: Emax >20x DMSO control = agonist

Row | Structure (SMILES) | IC50 (AR-VP16 [1]) [µM] | ARVP16 DNA Binding Assay (Agonist mode): Agonist? (AR-VP16 [2])
1 | COCCOc1ccc(N2C(=S)N(c3cnc(C#N)c(C(F)(F)F)c3)C(=O)C23CCC3)cc1F [Compound 131, 5-(5-(3-Fluoro-4-(2-methoxyethoxy)phenyl)-8-oxo-6-thioxo-5,7-diazaspiro[3.4]octan-7-yl)-3-(trifluoromethyl)picolinonitrile] | < 1 | No (Agonist defined as a compound whose Emax in the ARVP16 DNA Binding Assay (Agonist mode) is >20x DMSO control)
2 | CCOC(=O)COc1ccc(N2C(=S)N(c3cnc(C#N)c(C(F)(F)F)c3)C(=O)C23CCC3)cc1F [Compound 132, Ethyl 2-(4-(7-(6-cyano-5-(trifluoromethyl)pyridin-3-yl)-8-oxo-6-thioxo-5,7-diazaspiro[3.4]octan-5-yl)-2-fluorophenoxy)acetate] | > 1 | No (Agonist defined as a compound whose Emax in the ARVP16 DNA Binding Assay (Agonist mode) is >20x DMSO control)
3 | COCCCCOc1ccc(N2C(=S)N(c3cnc(C#N)c(C(F)(F)F)c3)C(=O)C23CCC3)cc1F [Compound 133, 5-(5-(3-Fluoro-4-(4-methoxybutoxy)phenyl)-8-oxo-6-thioxo-5,7-diazaspiro[3.4]octan-7-yl)-3-(trifluoromethyl)picolinonitrile] | < 1 | No (Agonist defined as a compound whose Emax in the ARVP16 DNA Binding Assay (Agonist mode) is >20x DMSO control)
4 | N#Cc1ncc(N2C(=O)C3(CCC3)N(c3ccc(OCCCCOCc4ccccc4)c(F)c3)C2=S)cc1C(F)(F)F [Compound 136, 5-(5-(4-(4-(Benzyloxy)butoxy)-3-fluorophenyl)-8-oxo-6-thioxo-5,7-diazaspiro[3.4]octan-7-yl)-3-(trifluoromethyl)picolinonitrile] | < 1 | No (Agonist defined as a compound whose Emax in the ARVP16 DNA Binding Assay (Agonist mode) is >20x DMSO control)
5 | N#Cc1ncc(N2C(=O)C3(CCC3)N(c3ccc(OCCCc4ccccc4)c(F)c3)C2=S)cc1C(F)(F)F [Compound 138, 5-(5-(3-Fluoro-4-(3-phenylpropoxy)phenyl)-8-oxo-6-thioxo-5,7-diazaspiro[3.4]octan-7-yl)-3-(trifluoromethyl)picolinonitrile] | > 1 | No (Agonist defined as a compound whose Emax in the ARVP16 DNA Binding Assay (Agonist mode) is >20x DMSO control)
6 | N#Cc1ncc(N2C(=O)C3(CCC3)N(c3ccc(OCCc4cccc5ccccc45)c(F)c3)C2=S)cc1C(F)(F)F [Compound 140, 5-(5-(3-Fluoro-4-(2-(naphthalen-1-yl)ethoxy)phenyl)-8-oxo-6-thioxo-5,7-diazaspiro[3.4]octan-7-yl)-3-(trifluoromethyl)picolinonitrile] | > 1 | No (Agonist defined as a compound whose Emax in the ARVP16 DNA Binding Assay (Agonist mode) is >20x DMSO control)
7 | N#Cc1ncc(N2C(=O)C3(CCC3)N(c3ccc(OCCc4ccc5ccccc5c4)c(F)c3)C2=S)cc1C(F)(F)F [Compound 141, 5-(5-(3-Fluoro-4-(2-(naphthalen-2-yl)ethoxy)phenyl)-8-oxo-6-thioxo-5,7-diazaspiro[3.4]octan-7-yl)-3-(trifluoromethyl)picolinonitrile] | > 1 | Yes (Agonist defined as a compound whose Emax in the ARVP16 DNA Binding Assay (Agonist mode) is >20x DMSO control)
8 | N#Cc1ncc(N2C(=O)C3(CCC3)N(c3ccc(OCCN4CCOCC4)c(F)c3)C2=S)cc1C(F)(F)F [Compound 143, 5-(5-(3-Fluoro-4-(2-morpholinoethoxy)phenyl)-8-oxo-6-thioxo-5,7-diazaspiro[3.4]octan-7-yl)-3-(trifluoromethyl)picolinonitrile] | < 1 | Yes (Agonist defined as a compound whose Emax in the ARVP16 DNA Binding Assay (Agonist mode) is >20x DMSO control)
9 | N#Cc1ncc(N2C(=O)C3(CCC3)N(c3ccc(OCCc4cccnc4)c(F)c3)C2=S)cc1C(F)(F)F [Compound 144, 5-(5-(3-Fluoro-4-(2-(pyridin-3-yl)ethoxy)phenyl)-8-oxo-6-thioxo-5,7-diazaspiro[3.4]octan-7-yl)-3-(trifluoromethyl)picolinonitrile] | < 1 | Yes (Agonist defined as a compound whose Emax in the ARVP16 DNA Binding Assay (Agonist mode) is >20x DMSO control)
10 | N#Cc1ncc(N2C(=O)C3(CCC3)N(c3ccc(OCCn4cccc4)c(F)c3)C2=S)cc1C(F)(F)F [Compound 146, 5-(5-(4-(2-(1H-Pyrrol-1-yl)ethoxy)-3-fluorophenyl)-8-oxo-6-thioxo-5,7-diazaspiro[3.4]octan-7-yl)-3-(trifluoromethyl)picolinonitrile] | < 1 | No (Agonist defined as a compound whose Emax in the ARVP16 DNA Binding Assay (Agonist mode) is >20x DMSO control)
11 | CN1CCN(CCOc2ccc(N3C(=S)N(c4cnc(C#N)c(C(F)(F)F)c4)C(=O)C34CCC4)cc2F)CC1 [Compound 149, 5-(5-(3-Fluoro-4-(2-(4-methylpiperazin-1-yl)ethoxy)phenyl)-8-oxo-6-thioxo-5,7-diazaspiro[3.4]octan-7-yl)-3-(trifluoromethyl)picolinonitrile] | < 1 | No (Agonist defined as a compound whose Emax in the ARVP16 DNA Binding Assay (Agonist mode) is >20x DMSO control)
12 | N#Cc1ncc(N2C(=O)C3(CCC3)N(c3ccc(OCCCN4CCOCC4)c(F)c3)C2=S)cc1C(F)(F)F [Compound 150, 5-(5-(3-Fluoro-4-(3-morpholinopropoxy)phenyl)-8-oxo-6-thioxo-5,7-diazaspiro[3.4]octan-7-yl)-3-(trifluoromethyl)picolinonitrile] | < 1 | Yes (Agonist defined as a compound whose Emax in the ARVP16 DNA Binding Assay (Agonist mode) is >20x DMSO control)
13 | N#Cc1ncc(N2C(=O)C3(CCC3)N(c3ccc(OCCCCSCCCC(F)(F)C(F)(F)F)c(F)c3)C2=S)cc1C(F)(F)F [Compound 151, 5-(5-(3-Fluoro-4-(4-((4,4,5,5,5-pentafluoropentyl)thio)butoxy)phenyl)-8-oxo-6-thioxo-5,7-diazaspiro[3.4]octan-7-yl)-3-(trifluoromethyl)picolinonitrile] | > 1 | No (Agonist defined as a compound whose Emax in the ARVP16 DNA Binding Assay (Agonist mode) is >20x DMSO control)
14 | N#Cc1ncc(N2C(=O)C3(CCC3)N(c3ccc(OCCCC[S+]([O-])CCCC(F)(F)C(F)(F)F)c(F)c3)C2=S)cc1C(F)(F)F (stereo not drawn) [Compound 152, 5-(5-(3-Fluoro-4-(4-((4,4,5,5,5-pentafluoropentyl)sulfinyl)butoxy)phenyl)-8-oxo-6-thioxo-5,7-diazaspiro[3.4]octan-7-yl)-3-(trifluoromethyl)picolinonitrile] | < 1 | No (Agonist defined as a compound whose Emax in the ARVP16 DNA Binding Assay (Agonist mode) is >20x DMSO control)
15 | N#Cc1ncc(N2C(=O)C3(CCC3)N(c3ccc(OCCCSCCCC(F)(F)C(F)(F)F)c(F)c3)C2=S)cc1C(F)(F)F [Compound 153, 5-(5-(3-Fluoro-4-(3-((4,4,5,5,5-pentafluoropentyl)thio)propoxy)phenyl)-8-oxo-6-thioxo-5,7-diazaspiro[3.4]octan-7-yl)-3-(trifluoromethyl)picolinonitrile] | < 1 | No (Agonist defined as a compound whose Emax in the ARVP16 DNA Binding Assay (Agonist mode) is >20x DMSO control)
